Reference: patent publication US5001154A, “Fervescence composition” (K.K. Ueno Seiyaku Oyo Kenkyujo, priority 1987, dated 1991)

Assay: fervescence activity by intravenous injection (rising of body temperature), 1 mg/kg
Assay type: in vivo, Wister male rats
Conditions: 1 mg/kg intravenous, urethane-anesthetized rats
Procedure: fervescence activity by intravenous injection Test animals were Wister male rats (8 weeks old) weighing 200±10 g. The rats were applied to anesthesia by intraperitoneal injection of 1.25 g/kg of urethane. Each test drug was dissolved into ethyl alcohol. The ethyl alcohol solution was diluted with Ringer's solution at least 50 times just before use and 1 mg/kg of the each test drug was intravenously administered. Body temperature was measured in the same manner as in Example 1. Ringer's solution containing ethyl alcohol was administered as control. Rising of body temperature is shown by the rising degree (°C.) from the temperature before administration.

Row | SMILES | Rising of Body Temperature
1 | CCCCCC(=O)CC[C@H]1[C@H](O)CC(=O)[C@@H]1C/C=C\CC=CC(=O)OC [compound 29] | +1.0 °C
2 | COCCCCC(C)(C)C(=O)CC[C@H]1[C@H](O)CC(=O)[C@@H]1C/C=C\CCCC(=O)OC [compound 50] | +0.2 °C
3 | CCOC(=O)CCC/C=C\C[C@H]1C(=O)C[C@@H](O)[C@@H]1CCC(=O)CCCC(C)C [compound 46] | +0.6 °C
4 | CCCCC(F)C(=O)/C=C/[C@H]1[C@H](O)CC(=O)[C@@H]1C/C=C\CCCC(=O)OC (stereo partly shown) [compound 56] | +1.0 °C
5 | CCCCC(C)C(=O)CC[C@H]1[C@H](O)CC(=O)[C@@H]1CC(=O)CCCCC(=O)OC (stereo partly shown) [compound 11] | +1.5 °C
6 | CCCCCC(=O)CC[C@H]1[C@H](O)CC(=O)[C@@H]1C/C=C\CCCC(=O)OCCO [compound 28] | +0.4 °C
7 | CCCCC(O)C(=O)CC[C@H]1[C@H](O)CC(=O)[C@@H]1C/C=C\CCCC(=O)OCC (stereo partly shown) [compound 37] | +0.2 °C
8 | CCCCCC(=O)CC[C@H]1[C@H](O)CC(=O)[C@@H]1CCCCC=CC(=O)O [compound 3] | 0 °C
9 | COC(=O)CCCCC(=O)C[C@H]1C(=O)C[C@@H](CO)[C@@H]1CCC(=O)CCCC(C)C [compound 17] | +0.4 °C
10 | CCCCCCCC(=O)CC[C@H]1[C@H](C)CC(=O)[C@@H]1C/C=C\CCCC(=O)OC [compound 55] | +0.2 °C
11 | CCCCC(C)C(=O)CC[C@H]1[C@H](O)CC(=O)[C@@H]1C/C=C\CCCC(=O)OCC (stereo partly shown) [compound 33] | +0.9 °C
12 | CCCCC(C)C(=O)CC[C@H]1[C@H](O)CC(=O)[C@@H]1C/C=C\CCCC(=O)OC (stereo partly shown) [compound 32] | +1.4 °C
13 | CCCCCC(=O)CC[C@H]1[C@H](C)CC(=O)[C@@H]1CC(=O)CCCCC(=O)OC [compound 19] | +1.0 °C
14 | CCCCCCCC(=O)CC[C@H]1[C@H](O)CC(=O)[C@@H]1C/C=C\CCCC(=O)OCC [compound 54] | +0.2 °C
15 | CCCCC[C@H](O)/C=C/[C@H]1[C@H](O)CC(=O)[C@@H]1C/C=C\CCCC(=O)O [compound 58] | +0.7 °C
16 | CCCCC(C)(C)C(=O)CC[C@H]1[C@H](O)CC(=O)[C@@H]1C/C=C\CCCC(=O)OC [compound 35] | +1.0 °C
17 | CCCCC(F)C(=O)CC[C@H]1[C@H](O)CC(=O)[C@@H]1CC(=O)CCCCC(=O)OCC (stereo partly shown) [compound 14] | +1.0 °C
18 | COC(=O)CCC/C=C\C[C@H]1C(=O)C[C@@H](O)[C@@H]1CCC(=O)CCCCC=C(C)C [compound 52] | +0.2 °C
19 | CCCCC(F)C(=O)CC[C@H]1[C@H](C)CC(=O)[C@@H]1CC(=O)CCCCC(=O)OCC (stereo partly shown) [compound 21] | +1.1 °C
20 | CCCCC(F)C(=O)CC[C@H]1[C@H](C)CC(=O)[C@@H]1C/C=C\CCCC(=O)OCC (stereo partly shown) [compound 42] | +1.4 °C
21 | CCCCCC(=O)CC[C@H]1[C@H](O)CC(=O)[C@@H]1CCCCC=CC(=O)OC [compound 4] | +0.8 °C
22 | CCCCCCCC(=O)CC[C@H]1[C@H](O)CC(=O)[C@@H]1CCCCCCC(=O)OC [compound 5] | +0.4 °C
23 | CCCCCC(=O)CC[C@H]1[C@H](O)CC(=O)[C@@H]1C/C=C\CC(C)CC(=O)OCC (stereo partly shown) [compound 31] | +1.0 °C

Row | SMILES | Rising of Body Temperature
24 | CCCCCC(=O)CC[C@H]1[C@H](O)CC(=O)[C@@H]1C/C=C\CC(C)CC(=O)OC (stereo partly shown) [compound 30] | +1.7 °C
25 | CCCCCC(=O)CC[C@H]1[C@H](C)CC(=O)[C@@H]1C/C=C\CCCC(=O)OCC [compound 43] | +0.2 °C
26 | CCC[C@H](C)CC(=O)CC[C@H]1[C@H](O)CC(=O)[C@@H]1C/C=C\CCCC(=O)OC [compound 44] | +0.2 °C
27 | CCCCC(F)C(=O)CC[C@H]1[C@H](O)CC(=O)[C@@H]1C/C=C\CCCC(=O)OCC (stereo partly shown) [compound 40] | +1.4 °C
28 | CCCCCC(F)C(=O)CC[C@H]1[C@H](O)CC(=O)[C@@H]1C/C=C\CCCC(=O)OC (stereo partly shown) [compound 41] | +0.8 °C
29 | CCCCC(F)C(=O)CC[C@H]1[C@H](O)CC(=O)[C@@H]1C/C=C\CCCC(=O)OC (stereo partly shown) [compound 39] | +0.9 °C
30 | CCCCCC(=O)CC[C@H]1[C@H](C)CC(=O)[C@@H]1CC(=O)CCCCC(=O)OCC [compound 20] | +1.3 °C
31 | COCCCCCC(=O)CC[C@H]1[C@H](O)CC(=O)[C@@H]1C/C=C\CC=CC(=O)OC [compound 48] | +0.2 °C
32 | CCCCC(F)C(=O)CC[C@H]1[C@H](O)CC(=O)[C@@H]1C/C=C\CCCC(=O)O (stereo partly shown) [compound 38] | +0.3 °C
33 | CCCCC(C)C(=O)CC[C@H]1[C@H](O)CC(=O)[C@@H]1C/C=C\CC(C)CC(=O)OC (stereo partly shown) [compound 34] | +1.0 °C
34 | CCCCCCC(=O)CC[C@H]1[C@H](O)CC(=O)[C@@H]1CC(=O)CCCCC(=O)OCC [compound 18] | +0.7 °C
35 | CCCCC(C)C(=O)CC[C@H]1[C@H](O)CC(=O)[C@@H]1CC(=O)CCCCC(=O)OCC (stereo partly shown) [compound 12] | +0.9 °C
36 | CCCCC(C)(C)C(=O)CC[C@H]1[C@H](O)CC(=O)[C@@H]1CC(=O)CCCCC(=O)OCC [compound 13] | +1.1 °C
37 | CCCCCC(=O)CC[C@H]1[C@H](O)CC(=O)[C@@H]1C/C=C\CCCC(=O)OCc1ccccc1 [compound 27] | +0.3 °C
38 | CCCCCC(=O)CC[C@H]1[C@H](O)CC(=O)[C@@H]1CC(=O)CCCCC(=O)OCCCC [compound 10] | +0.2 °C
39 | CCCCCC(=O)CC[C@H]1[C@H](O)CC(=O)[C@@H]1CC(=O)CCCCC(=O)OCC (relative stereo) [compound 9] | +0.7 °C
40 | CC(C)=CCCCCC(=O)CC[C@H]1[C@H](O)CC(=O)[C@@H]1C/C=C\CCCC(=O)O [compound 51] | +0.2 °C
41 | CCCCC[C@H](O)/C=C/[C@H]1[C@H](O)CC(=O)[C@@H]1CCCCCCC(=O)O [compound 57] | 0 °C
42 | CCCCCCCC(=O)CC[C@H]1[C@H](O)CC(=O)[C@@H]1C/C=C\CCCC(=O)OC [compound 53] | +0.5 °C
43 | CCCCC(C)(C)C(=O)CC[C@H]1[C@H](O)CC(=O)[C@@H]1C/C=C\CCCC(=O)OCC [compound 36] | +0.6 °C
44 | COCCCCCC(=O)CC[C@H]1[C@H](O)CC(=O)[C@@H]1C/C=C\CCCC(=O)OC [compound 47] | +0.3 °C
45 | COCCCCCC(=O)CC[C@H]1[C@H](O)CC(=O)[C@@H]1C/C=C\CC(C)CC(=O)OC (stereo partly shown) [compound 49] | +0.2 °C

Assay: fervescence (recovery of body temperature) activity at hemorrhage load
Assay type: in vivo, Wister male rats
Conditions: 0.5 mg/kg intravenous, rat loaded with hemorrhage
Procedure: fervescence (recovery of body temperature) activity at hemorrhage load
Wister male rats (weight: 200 g) were subcutaneously injected on the back with 1.5 g/kg of urethane, subjected to anesthesia. Hemorrhage was then induced by withdrawal of blood by puncture of the heart for the total volume of 3 ml equivalent to 1.5% of the body weight. After kept in a room for 60 minutes, the rats were administered intravenously with test solutions prepared by dissolving test drugs into Ringer's solution so as to administer the rat at a dose of 0.5 or 1 mg/kg, and change of the body temperature was observed. Ringer's solution was administered as control.
In the figures, (1), (2) and (3) correspond to the results of administration of doses 1 mg/kg, 0.5 mg/kg and Ringer's solution alone, respectively.

Row | SMILES | Rising of Body Temperature
46 | CCCCCC(=O)CC[C@H]1[C@H](C)CC(=O)[C@@H]1CC(=O)CCCCC(=O)OCC [compound 20] | +0.5 °C
47 | CCCCCCC(=O)CC[C@H]1[C@H](O)CC(=O)[C@@H]1CC(=O)CCCCC(=O)OCC [compound 18] | +0.4 °C

Same assay, conditions: 1 mg/kg intravenous, rat loaded with hemorrhage

Row | SMILES | Rising of Body Temperature
48 | CCCCCC(=O)CC[C@H]1[C@H](C)CC(=O)[C@@H]1CC(=O)CCCCC(=O)OCC [compound 20] | +0.8 °C
49 | CCCCCCC(=O)CC[C@H]1[C@H](O)CC(=O)[C@@H]1CC(=O)CCCCC(=O)OCC [compound 18] | +0.8 °C
